The target of one assay is T1, CASTOR1 (Homo sapiens, UniProt Q8WTX7).
T1 sequence (Q8WTX7 1-329): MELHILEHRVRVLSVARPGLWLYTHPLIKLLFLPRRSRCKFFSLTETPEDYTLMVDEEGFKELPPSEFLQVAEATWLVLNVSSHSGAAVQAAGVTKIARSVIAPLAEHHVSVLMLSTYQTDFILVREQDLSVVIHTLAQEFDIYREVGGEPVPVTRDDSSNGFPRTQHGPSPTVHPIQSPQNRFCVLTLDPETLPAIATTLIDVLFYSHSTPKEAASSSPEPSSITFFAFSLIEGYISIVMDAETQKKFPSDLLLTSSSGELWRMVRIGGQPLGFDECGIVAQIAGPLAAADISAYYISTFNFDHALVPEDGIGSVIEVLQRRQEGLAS
The assay is described as follows: equilibrium dialysis MS. Type of assay: binding. Particulars: 150 mM ammonium acetate pH 7.4, 4 C, metabolite pool. Background: In equilibrium dialysis only unbound substance equilibrates across the membrane.

Assay [1] concerns the target lactate dehydrogenase B (LDHB) (Homo sapiens, UniProt P07195). The assay is described as follows: NADH fluorometric LDH assay. The assay is classed as biochemical.
Assay [2] deals with T2, lactate dehydrogenase A (LDHA) (Homo sapiens, UniProt P00338). Briefly: biochemical.
Assay [3] deals with T2, lactate dehydrogenase A (LDHA). Briefly: NADH fluorometric LDH assay. The assay is classed as biochemical.

The structures appear in SMILES notation.

For orientation: IC50 means the concentration that gives 50% inhibition.

Sequence of lactate dehydrogenase B (LDHB) (P07195 2-334): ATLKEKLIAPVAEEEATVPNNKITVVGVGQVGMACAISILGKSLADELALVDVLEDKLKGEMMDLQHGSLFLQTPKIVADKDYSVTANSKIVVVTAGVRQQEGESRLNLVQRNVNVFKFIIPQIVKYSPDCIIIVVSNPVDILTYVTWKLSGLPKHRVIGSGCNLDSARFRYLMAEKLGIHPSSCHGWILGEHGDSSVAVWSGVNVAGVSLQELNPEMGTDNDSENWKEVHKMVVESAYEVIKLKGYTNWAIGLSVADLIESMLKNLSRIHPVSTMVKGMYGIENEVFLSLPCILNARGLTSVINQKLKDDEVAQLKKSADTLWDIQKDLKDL

`N=C(N)NCCC[C@H](N)C(=O)O` [arginine]: the “equilibrium dialysis MS (MIDAS)” value on CASTOR1 is recorded as “CASTOR1 enriched arginine (Fig. 1C)”.

For the molecule `CCCCCCCCCCCCCCCCCCCC(=O)SCCNC(=O)CCNC(=O)[C@H](O)C(C)(C)COP(=O)(O)OP(=O)(O)OC[C@H]1O[C@@H](n2cnc3c(N)ncnc32)[C@H](O)[C@@H]1OP(=O)(O)O` [C20:0-CoA], the IC50 in assay [1] was above 100 µM; in assay [2] it was 1.01 µM.

On to `CCCCCCCCCCCCCCCC(=O)SCCNC(=O)CCNC(=O)[C@H](O)C(C)(C)COP(=O)(O)OP(=O)(O)OC[C@H]1O[C@@H](n2cnc3c(N)ncnc32)[C@H](O)[C@@H]1OP(=O)(O)O` [C16:0-CoA], for which the results for the IC50 in assay [3], in assay [1] and in assay [2] were around 1 µM, above 100 µM and 1.54 µM, respectively.

Take `CCCCCCCC/C=C\CCCCCCCC(=O)SCCNC(=O)CCNC(=O)[C@H](O)C(C)(C)COP(=O)(O)OP(=O)(O)OC[C@H]1O[C@@H](n2cnc3c(N)ncnc32)[C@H](O)[C@@H]1OP(=O)(O)O` [C18:1-CoA]: the values for the IC50 in assay [3], in assay [1] and in assay [2] were around 1 µM, above 100 µM and 0.8 µM, respectively.

For the molecule `CCCCCCCC(=O)SCCNC(=O)CCNC(=O)[C@H](O)C(C)(C)COP(=O)(O)OP(=O)(O)OC[C@H]1O[C@@H](n2cnc3c(N)ncnc32)[C@H](O)[C@@H]1OP(=O)(O)O` [C8:0-CoA], in assay [1], the IC50 was above 100 µM.

Molecule `CCCC(=O)SCCNC(=O)CCNC(=O)[C@H](O)C(C)(C)COP(=O)(O)OP(=O)(O)OC[C@H]1O[C@@H](n2cnc3c(N)ncnc32)[C@H](O)[C@@H]1OP(=O)(O)O` [C4:0-CoA] showed an IC50 in assay [1] above 100 µM.

Consider `Nc1ncnc2c1ncn2[C@@H]1O[C@H](COP(=O)(O)O)[C@@H](O)[C@H]1O` [AMP], for which the IC50 in assay [3] is 24400 µM; in assay [1], 51400 µM.

`CCCCCCCCCCCC(=O)SCCNC(=O)CCNC(=O)[C@H](O)C(C)(C)COP(=O)(O)OP(=O)(O)OC[C@H]1O[C@@H](n2cnc3c(N)ncnc32)[C@H](O)[C@@H]1OP(=O)(O)O` [C12:0-CoA]: the IC50 in assay [3] and in assay [1] was above 100 µM each time.

On to `Nc1ncnc2c1ncn2[C@@H]1O[C@H](COP(=O)(O)OP(=O)(O)O)[C@@H](O)[C@H]1O` [ADP], for which the IC50 in assay [3] came to 5060 µM; in assay [1], 14900 µM.

`CC(=O)SCCNC(=O)CCNC(=O)[C@H](O)C(C)(C)COP(=O)(O)OP(=O)(O)OC[C@H]1O[C@@H](n2cnc3c(N)ncnc32)[C@H](O)[C@@H]1OP(=O)(O)O` [C2:0-CoA]: the IC50 in assay [1] is above 100 µM.

The record behind these values is article doi:10.1101/2021.08.28.458030v1 (biorxiv, 2021).
